Measured values: BindingDB's records for PubMed 20126400 (University of Oklahoma, 2010)

Columns and labels:
Experiment in all cases: Ray2010 Assay 74
Histamine H3 receptor = Histamine H3 receptor (Homo sapiens, UniProt Q9Y5N1)
Text: (§1) Table S2 shows raw Ki data for the current study combined with data collected from the literature for the ten additional compounds.

[1] = target: T1, Gamma-aminobutyric acid receptor subunit alpha-1/Adenosine receptor A1 (Homo sapiens, UniProt P14867+P30542)
T1 sequence (P30542 whole entry): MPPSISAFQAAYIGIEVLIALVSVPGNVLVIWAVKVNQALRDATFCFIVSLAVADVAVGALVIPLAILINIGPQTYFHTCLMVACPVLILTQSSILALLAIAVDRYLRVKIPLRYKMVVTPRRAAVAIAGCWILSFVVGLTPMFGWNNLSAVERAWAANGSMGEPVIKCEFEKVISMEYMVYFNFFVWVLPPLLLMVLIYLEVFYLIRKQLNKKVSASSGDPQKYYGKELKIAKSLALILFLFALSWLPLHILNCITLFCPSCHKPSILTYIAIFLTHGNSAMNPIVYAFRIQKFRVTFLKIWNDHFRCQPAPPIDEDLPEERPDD
T1 sequence (P14867 whole entry): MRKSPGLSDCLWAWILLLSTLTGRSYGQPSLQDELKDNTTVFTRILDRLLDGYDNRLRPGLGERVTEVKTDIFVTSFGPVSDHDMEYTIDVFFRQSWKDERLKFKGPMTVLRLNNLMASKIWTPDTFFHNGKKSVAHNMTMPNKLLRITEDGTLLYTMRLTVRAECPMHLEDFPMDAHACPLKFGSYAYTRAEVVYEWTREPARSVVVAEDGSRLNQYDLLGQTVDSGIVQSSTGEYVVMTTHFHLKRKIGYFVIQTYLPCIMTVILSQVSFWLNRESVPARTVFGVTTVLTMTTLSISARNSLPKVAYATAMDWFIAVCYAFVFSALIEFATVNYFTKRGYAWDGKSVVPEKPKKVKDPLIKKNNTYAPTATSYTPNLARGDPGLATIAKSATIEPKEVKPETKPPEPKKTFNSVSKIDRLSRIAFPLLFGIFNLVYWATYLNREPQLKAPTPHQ
Text: as §1

Cannabinoid receptor 1 = Cannabinoid receptor 1 (Homo sapiens, UniProt P21554)
Cannabinoid receptor 1, sequence (P21554 whole entry): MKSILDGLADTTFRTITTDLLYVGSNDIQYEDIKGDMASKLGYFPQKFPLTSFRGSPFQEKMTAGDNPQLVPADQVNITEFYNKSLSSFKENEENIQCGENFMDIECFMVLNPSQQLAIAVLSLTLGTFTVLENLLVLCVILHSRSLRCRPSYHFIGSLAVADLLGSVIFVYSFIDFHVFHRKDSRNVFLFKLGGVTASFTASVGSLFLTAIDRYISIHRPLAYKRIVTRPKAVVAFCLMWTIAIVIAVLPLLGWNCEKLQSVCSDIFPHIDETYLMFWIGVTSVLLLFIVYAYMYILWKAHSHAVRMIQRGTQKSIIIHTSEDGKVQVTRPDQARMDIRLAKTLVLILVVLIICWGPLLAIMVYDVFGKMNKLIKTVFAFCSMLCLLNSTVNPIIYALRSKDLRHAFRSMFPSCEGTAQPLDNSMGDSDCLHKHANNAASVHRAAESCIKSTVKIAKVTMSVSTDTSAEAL
Text: as §1

[2] = target: Voltage-dependent calcium channel subunit alpha-2/delta-1 (Homo sapiens, UniProt P54289)
Voltage-dependent calcium channel subunit alpha-2/delta-1, sequence (P54289 25-956 limits assumed): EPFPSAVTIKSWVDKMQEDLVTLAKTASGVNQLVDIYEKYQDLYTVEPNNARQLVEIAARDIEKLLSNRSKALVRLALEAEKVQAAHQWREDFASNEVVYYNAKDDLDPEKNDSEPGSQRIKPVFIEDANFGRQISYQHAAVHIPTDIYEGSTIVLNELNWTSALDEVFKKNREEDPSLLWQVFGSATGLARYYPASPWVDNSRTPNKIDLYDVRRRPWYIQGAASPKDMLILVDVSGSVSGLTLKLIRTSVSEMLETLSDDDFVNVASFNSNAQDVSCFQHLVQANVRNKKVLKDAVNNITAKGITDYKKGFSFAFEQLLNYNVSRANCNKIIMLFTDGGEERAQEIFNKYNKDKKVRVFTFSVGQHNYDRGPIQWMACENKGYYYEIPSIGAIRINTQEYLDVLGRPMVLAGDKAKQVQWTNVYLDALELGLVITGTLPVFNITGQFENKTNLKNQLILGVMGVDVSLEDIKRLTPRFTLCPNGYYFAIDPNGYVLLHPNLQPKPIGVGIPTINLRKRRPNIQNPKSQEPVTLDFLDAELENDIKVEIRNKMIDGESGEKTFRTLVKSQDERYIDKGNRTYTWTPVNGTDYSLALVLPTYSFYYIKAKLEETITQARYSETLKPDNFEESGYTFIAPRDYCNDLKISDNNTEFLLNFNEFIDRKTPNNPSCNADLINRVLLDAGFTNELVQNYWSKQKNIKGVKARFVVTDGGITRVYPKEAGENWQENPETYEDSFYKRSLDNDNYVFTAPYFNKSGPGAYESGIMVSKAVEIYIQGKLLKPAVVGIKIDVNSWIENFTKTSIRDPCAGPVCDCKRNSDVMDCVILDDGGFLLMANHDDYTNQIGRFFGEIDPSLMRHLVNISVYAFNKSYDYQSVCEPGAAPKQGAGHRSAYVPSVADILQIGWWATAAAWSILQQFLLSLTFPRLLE
Voltage-dependent calcium channel subunit alpha-2/delta-1, sequence (P54289 957-1103 limits assumed): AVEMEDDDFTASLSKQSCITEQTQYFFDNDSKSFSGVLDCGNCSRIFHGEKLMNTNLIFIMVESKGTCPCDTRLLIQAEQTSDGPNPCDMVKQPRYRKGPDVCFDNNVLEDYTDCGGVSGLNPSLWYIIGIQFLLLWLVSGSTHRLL
Text: as §1

[3] = target: Sigma intracellular receptor 2 (Homo sapiens, UniProt Q5BJF2)
Text: as §1

[4] = target: T2, Muscarinic acetylcholine receptor M4 (Homo sapiens, UniProt P08173)
T2 sequence (P08173 whole entry): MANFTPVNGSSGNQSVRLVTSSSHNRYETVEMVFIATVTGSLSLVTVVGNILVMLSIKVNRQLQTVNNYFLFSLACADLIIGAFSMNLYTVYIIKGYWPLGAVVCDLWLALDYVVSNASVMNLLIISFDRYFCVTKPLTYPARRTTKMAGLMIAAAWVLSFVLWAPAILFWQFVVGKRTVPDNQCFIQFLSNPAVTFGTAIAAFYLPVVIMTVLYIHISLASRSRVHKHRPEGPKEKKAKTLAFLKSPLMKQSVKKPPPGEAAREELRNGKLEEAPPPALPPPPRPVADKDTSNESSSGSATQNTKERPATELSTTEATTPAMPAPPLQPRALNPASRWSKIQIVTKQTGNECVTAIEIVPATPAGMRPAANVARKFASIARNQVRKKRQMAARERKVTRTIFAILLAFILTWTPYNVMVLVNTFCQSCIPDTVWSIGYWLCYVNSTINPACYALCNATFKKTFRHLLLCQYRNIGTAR
Text: as §1

[5] = target: T3, 5-hydroxytryptamine receptor 2C (Homo sapiens, UniProt P28335)
T3 sequence (P28335 whole entry): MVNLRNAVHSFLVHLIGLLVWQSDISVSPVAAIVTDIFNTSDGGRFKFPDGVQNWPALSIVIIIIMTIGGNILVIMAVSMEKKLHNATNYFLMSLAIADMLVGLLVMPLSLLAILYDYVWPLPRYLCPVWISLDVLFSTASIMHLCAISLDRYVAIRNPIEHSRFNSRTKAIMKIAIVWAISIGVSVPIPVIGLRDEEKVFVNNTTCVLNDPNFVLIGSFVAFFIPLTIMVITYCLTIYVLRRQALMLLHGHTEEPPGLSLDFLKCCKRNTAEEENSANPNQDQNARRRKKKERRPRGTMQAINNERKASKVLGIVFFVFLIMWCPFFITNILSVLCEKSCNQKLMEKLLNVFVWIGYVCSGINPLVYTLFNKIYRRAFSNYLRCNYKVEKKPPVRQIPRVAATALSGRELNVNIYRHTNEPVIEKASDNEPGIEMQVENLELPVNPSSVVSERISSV
Text: as §1

[6] = target: Neuronal acetylcholine receptor subunit alpha-3/beta-2 (Homo sapiens, UniProt P17787+P32297)
Text: as §1

[7] = target: Neuronal acetylcholine receptor subunit alpha-2/beta-4 (Homo sapiens, UniProt P30926+Q15822)
Text: as §1

[8] = target: Neuronal acetylcholine receptor subunit alpha-2/beta-2 (Homo sapiens, UniProt P17787+Q15822)
Text: as §1

[9] = target: Neuronal acetylcholine receptor subunit alpha-4/beta-4 (Homo sapiens, UniProt P30926+P43681)
Neuronal acetylcholine receptor subunit alpha-4/beta-4, sequence (P43681 whole entry): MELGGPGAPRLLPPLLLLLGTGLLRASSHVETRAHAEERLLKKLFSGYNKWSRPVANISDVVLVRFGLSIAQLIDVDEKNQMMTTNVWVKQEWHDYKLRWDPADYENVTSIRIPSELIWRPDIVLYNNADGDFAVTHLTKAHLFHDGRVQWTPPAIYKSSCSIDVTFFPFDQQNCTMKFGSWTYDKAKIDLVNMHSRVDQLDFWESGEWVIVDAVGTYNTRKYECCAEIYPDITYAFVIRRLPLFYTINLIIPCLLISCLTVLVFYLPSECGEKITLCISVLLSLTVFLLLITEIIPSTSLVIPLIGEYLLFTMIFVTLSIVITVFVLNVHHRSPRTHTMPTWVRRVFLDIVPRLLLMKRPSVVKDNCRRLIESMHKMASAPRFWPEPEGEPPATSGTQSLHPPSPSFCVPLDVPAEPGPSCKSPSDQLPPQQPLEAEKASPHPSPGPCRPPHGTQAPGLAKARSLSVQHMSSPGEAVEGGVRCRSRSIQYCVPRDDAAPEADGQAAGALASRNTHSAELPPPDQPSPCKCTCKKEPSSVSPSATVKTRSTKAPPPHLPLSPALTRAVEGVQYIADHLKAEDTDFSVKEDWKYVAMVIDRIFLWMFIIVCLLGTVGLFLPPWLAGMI
Neuronal acetylcholine receptor subunit alpha-4/beta-4, sequence (P30926 whole entry): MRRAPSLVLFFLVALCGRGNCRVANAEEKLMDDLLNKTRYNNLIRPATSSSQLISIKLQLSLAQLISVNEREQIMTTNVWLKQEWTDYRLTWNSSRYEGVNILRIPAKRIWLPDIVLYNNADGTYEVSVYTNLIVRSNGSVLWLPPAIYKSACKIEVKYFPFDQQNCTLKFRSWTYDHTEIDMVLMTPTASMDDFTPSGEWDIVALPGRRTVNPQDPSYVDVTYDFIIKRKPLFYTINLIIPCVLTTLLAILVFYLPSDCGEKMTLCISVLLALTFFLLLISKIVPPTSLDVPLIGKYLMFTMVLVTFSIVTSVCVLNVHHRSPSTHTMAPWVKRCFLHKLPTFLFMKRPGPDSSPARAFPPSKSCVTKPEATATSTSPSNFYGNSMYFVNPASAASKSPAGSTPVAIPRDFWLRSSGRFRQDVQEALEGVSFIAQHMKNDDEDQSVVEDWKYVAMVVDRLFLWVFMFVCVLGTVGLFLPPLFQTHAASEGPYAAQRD
Text: as §1

[10] = target: Neuronal acetylcholine receptor subunit alpha-4/beta-2 (Homo sapiens, UniProt P17787+P43681)
Neuronal acetylcholine receptor subunit alpha-4/beta-2 (Homo sapiens, UniProt P17787+P43681), sequence (P43681 whole entry): as the sequence (P43681 whole entry) above
Neuronal acetylcholine receptor subunit alpha-4/beta-2 (Homo sapiens, UniProt P17787+P43681), sequence (P17787 whole entry): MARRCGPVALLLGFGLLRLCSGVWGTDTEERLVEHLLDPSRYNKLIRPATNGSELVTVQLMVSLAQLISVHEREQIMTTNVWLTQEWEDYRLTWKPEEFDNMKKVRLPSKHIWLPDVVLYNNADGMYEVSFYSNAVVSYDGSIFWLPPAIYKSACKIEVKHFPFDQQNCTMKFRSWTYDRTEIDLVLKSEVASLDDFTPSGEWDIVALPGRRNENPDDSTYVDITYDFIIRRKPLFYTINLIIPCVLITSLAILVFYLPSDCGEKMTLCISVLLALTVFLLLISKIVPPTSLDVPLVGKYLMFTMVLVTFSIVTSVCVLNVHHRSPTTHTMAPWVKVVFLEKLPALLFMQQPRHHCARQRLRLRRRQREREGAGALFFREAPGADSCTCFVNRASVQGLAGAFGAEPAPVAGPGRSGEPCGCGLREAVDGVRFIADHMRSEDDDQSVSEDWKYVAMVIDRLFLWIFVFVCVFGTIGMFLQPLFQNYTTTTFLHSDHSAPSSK
Text: as §1

[11] = target: Neuronal acetylcholine receptor subunit alpha-4/beta-2 (Mus musculus, UniProt O70174+Q9ERK7)
Neuronal acetylcholine receptor subunit alpha-4/beta-2 (Mus musculus, UniProt O70174+Q9ERK7), sequence (O70174 whole entry): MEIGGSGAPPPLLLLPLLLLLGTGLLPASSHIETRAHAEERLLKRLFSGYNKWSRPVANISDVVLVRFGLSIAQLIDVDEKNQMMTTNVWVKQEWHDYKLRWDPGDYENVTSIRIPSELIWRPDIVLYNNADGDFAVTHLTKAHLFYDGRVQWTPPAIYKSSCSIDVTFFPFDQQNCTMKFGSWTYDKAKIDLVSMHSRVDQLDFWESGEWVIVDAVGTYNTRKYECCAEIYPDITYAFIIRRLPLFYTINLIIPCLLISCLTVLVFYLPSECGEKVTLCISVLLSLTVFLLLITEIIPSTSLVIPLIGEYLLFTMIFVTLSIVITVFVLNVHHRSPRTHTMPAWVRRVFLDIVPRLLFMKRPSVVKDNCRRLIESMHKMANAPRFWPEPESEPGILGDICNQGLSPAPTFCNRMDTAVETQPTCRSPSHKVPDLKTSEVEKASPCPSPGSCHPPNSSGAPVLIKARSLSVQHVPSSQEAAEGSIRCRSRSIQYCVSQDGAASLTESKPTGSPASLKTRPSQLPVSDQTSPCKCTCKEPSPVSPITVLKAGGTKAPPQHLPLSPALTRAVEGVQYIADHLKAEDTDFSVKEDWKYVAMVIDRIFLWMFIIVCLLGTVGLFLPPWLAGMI
Neuronal acetylcholine receptor subunit alpha-4/beta-2 (Mus musculus, UniProt O70174+Q9ERK7), sequence (Q9ERK7 whole entry): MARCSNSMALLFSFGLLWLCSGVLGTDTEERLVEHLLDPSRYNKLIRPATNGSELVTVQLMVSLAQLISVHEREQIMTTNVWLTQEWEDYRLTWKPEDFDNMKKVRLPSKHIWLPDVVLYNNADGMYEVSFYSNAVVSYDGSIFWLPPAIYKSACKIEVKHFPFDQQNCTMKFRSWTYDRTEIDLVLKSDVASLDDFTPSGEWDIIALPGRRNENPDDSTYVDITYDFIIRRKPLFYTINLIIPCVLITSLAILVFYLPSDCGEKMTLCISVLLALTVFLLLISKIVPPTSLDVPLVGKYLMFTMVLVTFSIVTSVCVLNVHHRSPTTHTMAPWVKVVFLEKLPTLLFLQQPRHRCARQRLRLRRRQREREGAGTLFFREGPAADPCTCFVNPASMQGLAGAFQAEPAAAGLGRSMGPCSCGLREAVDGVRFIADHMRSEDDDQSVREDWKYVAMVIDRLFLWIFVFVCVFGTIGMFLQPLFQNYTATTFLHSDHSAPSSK
Text: as §1

[12] = target: Metabotropic glutamate receptor 5 (Homo sapiens, UniProt P41594)
Text: as §1

[13] = target: Metabotropic glutamate receptor 8 (Homo sapiens, UniProt O00222)
Text: as §1

[14] = target: Metabotropic glutamate receptor 4 (Homo sapiens, UniProt Q14833)
Text: as §1

[15] = target: Metabotropic glutamate receptor 6 (Homo sapiens, UniProt O15303)
Text: as §1

[16] = target: Metabotropic glutamate receptor 2 (Homo sapiens, UniProt Q14416)
Text: as §1

[17] = target: Metabotropic glutamate receptor 1 (Homo sapiens, UniProt Q13255)
Text: as §1

Molecule	Ki (Histamine H3 receptor)	Ki [1]	Ki (Cannabinoid receptor 1)	Ki [2]	Ki [3]	Ki [4]	further results
CC(N)Cc1ccc2c(c1)OCO2 (configuration not stated)	> 10 µM	> 10 µM	> 10 µM	–	–	–	–
CCOc1cc(OC)c(CC(C)N)cc1OC (configuration not stated)	> 10 µM	> 10 µM	> 10 µM	> 10 µM	> 10 µM	> 10 µM	Ki [5]: > 10 µM
COc1cc(CC(C)N)cc(OC)c1OC (configuration not stated)	> 10 µM	–	> 10 µM	–	0.536 µM	–	–
COc1cc(CCN)c(OC)cc1Br	> 10 µM	> 10 µM	> 10 µM	–	> 10 µM	> 10 µM	–
CCc1cc(OC)c(CC(C)N)cc1OC (configuration not stated)	> 10 µM	–	> 10 µM	–	9.56 µM	–	–
CCSc1cc(OC)c(CC(N)CC)cc1OC (configuration not stated) [1-(4-Ethylsulfanyl-2,5-dimethoxy-benzyl)-propylamine]	> 10 µM	> 10 µM	> 10 µM	> 10 µM	> 10 µM	> 10 µM	–
CN(C)CCc1c[nH]c2ccccc12 [2-(1H-indol-3-yl)-N,N-dimethylethanamine]	> 10 µM	> 10 µM	> 10 µM	> 10 µM	> 10 µM	> 10 µM	–
CCc1cc(OC)c(CCN)cc1OC [2-(2,5-dimethoxy-4-ethylphenyl)ethylamine]	> 10 µM	> 10 µM	> 10 µM	> 10 µM	> 10 µM	> 10 µM	–
COc1cc(CC(C)N)c(OC)cc1Br (stereo not drawn) [2-(4-Bromo-2,5-dimethoxy-phenyl)-1-methyl-ethylamine((-)-DOB)]	–	> 10 µM	> 10 µM	> 10 µM	> 10 µM	> 10 µM	–
CCSc1cc(OC)c(CC(C)N)cc1OC (configuration not stated) [2-(4-Ethylsulfanyl-2,5-dimethoxy-phenyl)-1-methyl-ethylamine]	> 10 µM	> 10 µM	> 10 µM	> 10 µM	> 10 µM	> 10 µM	–
NCCc1c2c(c(Br)c3c1OCC3)OCC2 [2-(8-Bromo-2,3,6,7-tetrahydro-benzo[1,2-b;4,5-b']difuran-4-yl)-ethylamine]	> 10 µM	–	> 10 µM	–	> 10 µM	0.52 µM	Ki [6]: > 10 µM; Ki [7]: > 10 µM; Ki [8]: > 10 µM; Ki [9]: > 10 µM; Ki [10]: > 10 µM; Ki [5]: 0.0106 µM; Ki [11]: > 10 µM
CCSc1cc(OC)c(CCN)cc1OC [2C-T-2]	> 10 µM	> 10 µM	> 10 µM	> 10 µM	> 10 µM	> 10 µM	–
COC(=O)[C@@H]1C[C@H](OC(C)=O)C(=O)[C@H]2[C@@]1(C)CC[C@H]1C(=O)O[C@H](c3ccoc3)C[C@]21C [2S,4aR,6a(R,7R,9S,10aS,10bR)-9-(acetyloxy)-2-(furan-3-yl)dodecahydro-6a,10b-dimethyl-4,10-dioxo-2H-naphtho[2,1-c]pyran-7-carboxylic acid methyl ester]	–	–	–	–	–	> 10 µM	Ki [5]: > 10 µM
COc1cc(CCN)cc(OC)c1OC [3,4,5-trimethoxyphenylethylamine]	> 10 µM	> 10 µM	> 10 µM	> 10 µM	> 10 µM	> 10 µM	Ki [5]: > 10 µM
COc1ccc2[nH]cc(CCN(C)C)c2c1 [3-(2-DIMETHYLAMINOETHYL)-5-METHOXYINDOLE]	–	> 10 µM	> 10 µM	> 10 µM	> 10 µM	> 10 µM	–
CN(C)CCc1c[nH]c2cccc(O)c12 [4-hydroxy-N,N-dimethyltryptamine]	> 10 µM	> 10 µM	> 10 µM	> 10 µM	> 10 µM	> 10 µM	–
COc1ccc2[nH]cc(CCN(C(C)C)C(C)C)c2c1 [5-meo-dipt]	> 10 µM	> 10 µM	> 10 µM	> 10 µM	3 µM	> 10 µM	Ki [5]: > 10 µM
COc1ccc2[nH]cc(CCN(C)C(C)C)c2c1 [5-meo-mipt]	> 10 µM	> 10 µM	–	> 10 µM	0.918 µM	> 10 µM	–
CN(C)CCc1c[nH]c2cc(F)ccc12 [6-f-dmt]	> 10 µM	> 10 µM	> 10 µM	> 10 µM	7.13 µM	> 10 µM	–
COc1cc(OC)c(OC)cc1CC(C)N (stereo not drawn) [(+/-)1-Methyl-2-(2,4,5-trimethoxy-phenyl)-ethylamine]	> 10 µM	–	–	–	–	–	–
COc1cc(CC(C)N)c(OC)cc1C (stereo not drawn) [(+/-)2-(2,5-Dimethoxy-4-methyl-phenyl)-1-methyl-ethylamine]	> 10 µM	–	> 10 µM	–	> 10 µM	–	Ki [6]: > 10 µM; Ki [7]: > 10 µM; Ki [8]: > 10 µM; Ki [9]: > 10 µM; Ki [10]: > 10 µM; Ki [11]: > 10 µM
CCN(CC)C(=O)[C@@H]1C=C2c3cccc4[nH]cc(c34)C[C@H]2N(C)C1 [[N-methyl-3H]LSD]	–	–	–	–	–	–	Ki [6]: > 10 µM; Ki [12]: > 10 µM; Ki [13]: > 10 µM; Ki [14]: > 10 µM; Ki [7]: > 10 µM; Ki [8]: > 10 µM; Ki [9]: > 10 µM; Ki [10]: > 10 µM; Ki [15]: > 10 µM; Ki [16]: > 10 µM; Ki [17]: > 10 µM; Ki [11]: > 10 µM
CC(C)N(CCc1c[nH]c2ccccc12)C(C)C [dipt]	–	> 10 µM	> 10 µM	> 10 µM	2.7 µM	> 10 µM	Ki [5]: > 10 µM
CCCN(CCC)CCc1c[nH]c2ccccc12 [dpt]	> 10 µM	> 10 µM	> 10 µM	> 10 µM	2.92 µM	> 10 µM	–
CAS_82830-44-2::(2R)-1-(4-iodo-2,5-dimethoxyphenyl)propan-2-amine::DOI,(-)::US20250270173, Compound DOI	> 10 µM	–	> 10 µM	–	9.17 µM	0.578 µM	Ki [6]: > 10 µM; Ki [8]: > 10 µM; Ki [5]: 0.0458 µM; Ki [11]: > 10 µM
